Key:
tumor = conditions: bio-distribution studies; cited from earlier work
[1] = tested on: lung cancer cell line A549; assay: Uptake of [F-18]-labeled compounds into tumor cells; assay type: cell-based; conditions: 5×10^6 cells, 0.5 MBq, time point not given
Protocol: (§1) The uptake of [F-18]-labeled compounds was investigated by incubating 5×10^6 cells in 350 μl incubation buffer with 0.5 MBq [F-18]-labeled compound and taking aliquots at the various time points. The aliquots were transferred into oil, centrifuged shortly to separate cells from free compounds. The tubes were frozen, the cell pellet in the tip of the tube was cut off and radioactivity was measured in a gamma counter.

melanoma cell line A375 = assay: as above; assay type: cell-based; conditions: 5×10^6 cells, 0.5 MBq, time point not given
Protocol: as §1

PC-3 prostate cell line = assay: as above; assay type: cell-based; conditions: 5×10^6 cells, 0.5 MBq, time point not given
Protocol: as §1

[2] = tested on: colon cancer cell line HCT-116; assay: as above; assay type: cell-based; conditions: 5×10^6 cells, 0.5 MBq, time point not given
Protocol: as §1

[3] = tested on: DU-145 prostate cell line; assay: as above; assay type: cell-based; conditions: 5×10^6 cells, 0.5 MBq, time point not given
Protocol: as §1

[4] = tested on: tumor cells lines A375, PC-3, HCT-116, A549 and DU-145; assay: Time dependent uptake of [F-18]-labeled compounds, all cell lines together; assay type: cell-based
Protocol: as §1
FIG. 7: Time dependent uptake of [F-18]-Fluoroethyl-Choline (FE-Ch) into the tumor cells lines A375, PC-3, HCT-116, A549 and DU-145.
FIG. 8: Time dependent uptake of [F-18]-Fluoroethyl-N-Methyl-Ethanolamine into the tumor cells lines A375, PC-3, HCT-116, A549 and DU-145.
FIG. 9: Time dependent uptake of [F-18]-Fluoroethyl-N-Ethyl-Ethanolamine into the tumor cells lines A375, PC-3, HCT-116, A549 and DU-145.
FIG. 10: Time dependent uptake of [F-18]-Fluoropropyl-N-Methyl-Ethanolamine into the tumor cells lines A375, PC-3, HCT-116, A549 and DU-145.

Row | Compound | tumor uptake in bio-distribution (tumor) | uptake [1] | uptake (melanoma cell line A375) | uptake (PC-3 prostate cell line) | uptake [2] | uptake [3] | uptake after 30 min ([4]; after 30 min, across the cell lines (FIG. 8)) | maximum value of uptake reached after 60 min ([4]; after 60 min, all cell lines) | course of uptake over time ([4]; over the 60 minutes investigated)
1 | [C-14]dimethyl-ethanolamine | tumor uptake | – | – | – | – | – | – | – | –
2 | CN(CCO)CC[18F] [[F-18]-Fluoroethyl-N-Methyl-Ethanolamine, [F-18]2-[(2-Fluoro-ethyl)-methyl-amino]-ethanol] | – | 17% | 22% | 25.5% | 29% | 20.5% | 17-30% | – | –
3 | C[N+](C)(CCO)CC[18F] [FE-Ch, [F-18]-Fluoroethyl-Choline] | – | 4% | 4% | 6.5% | 4% | 3% | – | 5-10% | slowly linear increasing
4 | [C-14]ethanolamine [[C-14] derivative of ethanolamine (1)] | tumor uptake | – | – | – | – | – | – | – | –

Source: patent US20090130020A1, “DIAGNOSTIC AGENTS FOR POSITRON EMISSION IMAGING USING F-18 RADIO-LABELED AMINO-ALCOHOLS” (priority 2007, published 2009)
